Source: patent US8357681B2, “Composition and method for controlling pests” (priority 2008, dated 2013)

Test system: Pythium ultimum, pathogen of cucumber damping-off
Assay: Cucumber damping-off seed treatment test (Test Example 1)
Type: in vivo
Settings: cucumber seeds, 18° C., 13 days
Excerpt: An acetone solution of ethaboxam and an acetone solution of clothianidin were mixed to prepare mixed liquids containing ethaboxam and clothianidin in predetermined concentration. These mixed liquids were adhered on the surface of cucumber (Sagamihanjiro) seeds and allowed to stand still overnight. A plastic pot was filled with sandy soil and the seeds were disseminated on it. Then the seeds were covered with sandy soil which had been mixed with a bran medium on which Pythium ultimum, pathogen of cucumber damping-off, had been allowed to grow. They were irrigated and allowed to grow at 18° C. under humidity for 13 days, and thereafter control effect was checked.
As a comparison, acetone solutions containing ethaboxam in the predetermined concentration and acetone solutions containing clothianidin in the predetermined concentration were prepared and subjected to similar tests.
The incidence of disease was calculated by Equation 1 and the control value was calculated by Equation 2 based on the incidence of disease.
A: Incidence of disease of plant in untreated area
B: Incidence of disease of plant in treated area
E=X+Y−(X×Y)/100 “Equation 2”

SMILES	Actual control value (ethaboxam 5 g ai/100 kg-seed alone)	Actual control value (ethaboxam 10 g ai/100 kg-seed alone)	Actual control value (clothianidin 150 g ai/100 kg-seed alone)	Actual control value (clothianidin 300 g ai/100 kg-seed alone)
CCNc1nc(CC)c(C(=O)NC(C#N)c2cccs2)s1 (stereo not shown) [Ethaboxam, ethaboxam]	60%	73%	–	–
CN/C(=N\[N+](=O)[O-])NCc1cnc(Cl)s1 [clothianidin]	–	–	0.0%	0.0%
